From US20250283038A1, “COMPOUNDS INDUCING PRODUCTION OF PROTEINS BY IMMUNE CELLS” (UNIVERSITE PARIS CITE, priority 2022, published 2025)

Test system: human B cells
Test: IL-10 induction in human B cells cultivated with anti-IgM plus CpG, IL-10 measured in cell culture supernatants
Type: cell-based
Settings: 2 consecutive days, molecule at 0.25 μM final concentration
Procedure: Human B cells isolated magnetically through negative selection (B Cell Isolation Kit II, human, Miltenyi ref: 130-091-151) were cultivated for 2 consecutive days in the presence of anti-IgM plus CpG in the presence of the indicated molecule (see table 3) at 0.25μM final concentration. IL-10 was measured in cell culture supernatants.
Human B cells isolated magnetically through negative selection (B Cell Isolation Kit II, human, Miltenyi ref: 130-091-151) were cultivated for 2 consecutive days in the presence of anti-IgM plus CpG in the presence of DMSO (as control) or in the presence of the tested molecules at 0.25 microM final concentration. IL-10 was measured in cell culture supernatants. NS: non stimulated B cell culture condition.

“N-(2-(4-fluorophenyl)imidazo[1,2-a]pyridin-6-yl)-2-methoxybenzamide [Compound 217]” was tested, and the “II-10 Induction Mean (pg/mL) human” value was 2.06 pg/mL.
